IC50 and MIC data for nine compounds are collected here from patent US10722520B2, “Heterocyclic compounds and their use in preventing or treating bacterial infections” (MUTABILIS, priority 2016, dated 2020).

Experiment [1] addresses AmpC (P99) (Enterobacter cloacae, UniProt P05364). Description: biochemical.
Experiment [2] deals with OXA-48 (Klebsiella pneumoniae, UniProt Q6XEC0).
For experiment [3], the system named is K. pneumoniae 6299. Description: MIC of compound alone, broth microdilution. In kind it is cell-based. To be noted: Klebsiella pneumoniae; strain 6299; compound alone; read-out: MIC compounds of the invention alone. The method, then: (§1) Log phase bacterial suspensions were adjusted to a final density of 5×10^5 cfu/mL in cation-adjusted Mueller-Hinton broth (Becton-Dickinson) and added to each well (98 μL). Microplates were incubated for 16-20 h at 35° C. in ambient air. The MIC of the compounds was defined as the lowest concentration of said compounds that prevented bacterial growth as read by visual inspection.
Background: In broth dilution the organism is exposed to a series of concentrations in liquid medium.

For experiment [4], the system named is E. cloacae P99. In words: MIC of compound alone, broth microdilution. In kind it is cell-based. The settings on record: Enterobacter cloacae; strain P99; compound alone; read-out: MIC compounds of the invention alone. The method, then: as §1
Experiment [5] has as its system P. aeruginosa CIP107051. In words: MIC of compound alone, broth microdilution. The format is cell-based. The settings on record: Pseudomonas aeruginosa; strain CIP107051; compound alone; read-out: MIC compounds of the invention alone. The method, then: as §1
Experiment [6] concerns K. pneumoniae BAA-1898. Description: MIC of compound alone, broth microdilution. In kind it is cell-based. To be noted: Klebsiella pneumoniae, BAA1898; strain BAA-1898; compound alone; read-out: MIC compounds of the invention alone. As to the method: as §1
The subject of experiment [7] is E. coli 190317. In words: MIC of compound alone, broth microdilution. The format is cell-based. The settings on record: Escherichia coli; strain 190317; compound alone; read-out: MIC compounds of the invention alone. The method, then:
as §1

Experiment [8] concerns the target AmpC (PAE) (Pseudomonas aeruginosa, UniProt P24735). In words: biochemical.
The target in experiment [9] is OXA-15 (Pseudomonas aeruginosa, UniProt Q51574). In words: biochemical.
Experiment [10] deals with CMY-37 (Citrobacter freundii, UniProt P05193). To be noted: read-out: IC50 β-lactamase CMY-37.
The target of experiment [11] is SHV-1 (Klebsiella pneumoniae, UniProt P0AD64).
In experiment [12] the target is OXA-11 (Pseudomonas aeruginosa, UniProt Q06778).
Experiment [13] concerns the target CTX-M-15 (Escherichia coli, UniProt Q9EXV5).
Experiment [14] has as its target TEM-1 (Escherichia coli, UniProt P62593).
Experiment [15] concerns the target OXA-1 (Escherichia coli, UniProt P13661).
Experiment [16] concerns the target KPC-2 (Klebsiella pneumoniae, UniProt Q9F663).

The term IC50 denotes the midpoint of a concentration-inhibition curve. The term MIC denotes the least concentration at which growth counts as inhibited.

Where a name gives a salt, the structure may show the parent alone. Read-outs that look alike come from different tables or passages of the source.

In the case of `NCCc1ccn(C2=CC3CN(C2)C(=O)N3OS(=O)(=O)O)n1` (stereo not drawn) [Example 10, [3-[3-(2-aminoethyl)pyrazol-1-yl]-7-oxo-1,6-diazabicyclo[3.2.1]oct-3-en-6-yl]hydrogen sulfate], the IC50 came to 22 nM in experiment [1]; 14 nM in [2]; 160 nM in [8]; 180 nM in [9]; 18 nM in [10] (class (C), nitrocefin 200 μM, 30-min pre-incubation, enzyme 0.2 nM); 3.2 nM in [11]. Moreover, the IC50 came to 67 nM in experiment [12]; 1.1 nM in experiment [13]; 0.3 nM in experiment [14]; 270 nM in [15]; 50 nM in experiment [16]. Also, the MIC in experiment [3] is above 32 µg/mL; in experiment [4], 8 µg/mL; in experiment [5], 32 µg/mL; in experiment [6], 16 µg/mL; in [7], 1 µg/mL.
Take `O=C(NCCO)c1ccn(C2=CC3CN(C2)C(=O)N3OS(=O)(=O)[O-])n1.[Na+]` (stereo not drawn) [Example 11, sodium [3-[3-(2-hydroxyethylcarbamoyl)pyrazol-1-yl]-7-oxo-1,6-diazabicyclo[3.2.1]oct-3-en-6-yl]sulfate]: the IC50 in experiment [1] was determined as 27 nM; in experiment [2] it was 7.7 nM; in [8] it was 430 nM; in experiment [9], 78 nM; in [10], 53 nM; in experiment [11] it was 7.6 nM. Besides, the half-inhibitory concentration (IC50) is 21 nM in experiment [12]; 1.4 nM in experiment [13]; 1.2 nM in [14]; 95 nM in experiment [15]; 12 nM in experiment [16]. Also, the MIC was above 32 µg/mL in experiment [3]; 32 µg/mL in experiment [4]; above 32 µg/mL in experiment [5]; above 32 µg/mL in [6]; 16 µg/mL in [7].
Take `Nc1ncc(C(=O)Nc2ccn(C3=CC4CN(C3)C(=O)N4OS(=O)(=O)[O-])n2)s1.[Na+]` (stereo not drawn) [Example 13, sodium [3-[3-[(2-aminothiazole-5-carbonyl)amino]pyrazol-1-yl]-7-oxo-1,6-diazabicyclo[3.2.1]oct-3-en-6-yl]sulfate]: the IC50 turned out to be 2.6 nM in [1]; 1.9 nM in experiment [2]; 8.7 nM in experiment [8]; 11 nM in experiment [9]; 1.1 nM in [10]; 3.2 nM in experiment [11]. In addition, the IC50 in experiment [12] worked out at 4 nM; in [13], 0.62 nM; in [14], 0.65 nM; in experiment [15], 27 nM; in experiment [16], 2.5 nM. Besides, the MIC was above 32 µg/mL in experiment [3]; above 32 µg/mL in [4]; above 32 µg/mL in experiment [5]; above 32 µg/mL in [6]; 32 µg/mL in experiment [7].
`O=C1N2CC(n3cc(F)cn3)=CC(C2)N1OS(=O)(=O)[O-].[Na+]` (stereo not drawn) [Example 14, sodium (7-oxo-3-(4-fluoropyrazol-1-yl)-1,6-diazabicyclo[3.2.1]oct-3-en-6-yl) sulfate]: the IC50 in experiment [1] was 17 nM; in [2], 8.6 nM; in experiment [8] it was 21 nM; in experiment [9], 52 nM; in experiment [10], 10 nM; in experiment [11], 4 nM. Further, the IC50 in experiment [12] was found to be 34 nM; in experiment [13] it was 1.8 nM; in experiment [14] it was 0.87 nM; in [15], 82 nM; in [16], 17 nM. For the same compound, the MIC in experiment [3] was 16 µg/mL; in [4] it was 16 µg/mL; in [5], above 32 µg/mL; in [6], 8 µg/mL; in experiment [7], 4 µg/mL.
As to `NS(=O)(=O)c1cnn(C2=CC3CN(C2)C(=O)N3OS(=O)(=O)[O-])c1.[Na+]` (stereo not drawn) [Example 16, sodium [7-oxo-3-(4-sulfamoylpyrazol-1-yl)-1,6-diazabicyclo[3.2.1]oct-3-en-6-yl]sulfate], the IC50 was 13 nM in [1]; 12 nM in [2]; 180 nM in experiment [8]; 42 nM in [9]; 21 nM in experiment [10]; 3.4 nM in [11]. The IC50 in experiment [12] was 650 nM; in experiment [13], 1.4 nM; in [14] it was 0.56 nM; in [15] it was 100 nM; in experiment [16], 4.6 nM. Moreover, the MIC is above 32 µg/mL in experiment [3]; 32 µg/mL in [4]; above 32 µg/mL in experiment [5]; 32 µg/mL in experiment [6]; 8 µg/mL in experiment [7].
For the compound `O=C1N2CC(n3ccc(F)n3)=CC(C2)N1OS(=O)(=O)[O-].[Na+]` (stereo not drawn) [Example 18, sodium [7-oxo-3-(3-fluoropyrazol-1-yl)-1,6-diazabicyclo[3.2.1]oct-3-en-6-yl]sulfate], the IC50 in experiment [1] was determined as 24 nM; in experiment [2] it was 8.2 nM; in experiment [8], 43 nM; in experiment [9], 78 nM; in experiment [10], 18 nM; in [11], 2.8 nM. Also, the IC50 in [12] is 46 nM; in [13], 0.65 nM; in experiment [14], 0.43 nM; in [15], 96 nM; in experiment [16], 13 nM. The MIC is 4 µg/mL in [3]; 8 µg/mL in [4]; above 32 µg/mL in [5]; 8 µg/mL in experiment [6]; 1 µg/mL in experiment [7].
As to `NC(=O)c1ccn(C2=CC3CN(C2)C(=O)N3OS(=O)(=O)[O-])n1.[Na+]` (stereo not drawn) [Example 19, sodium [3-(3-carbamoylpyrazol-1-yl)-7-oxo-1,6-diazabicyclo[3.2.1]oct-3-en-6-yl]sulfate], the IC50 came to 19 nM in experiment [1]; 5.2 nM in experiment [2]; 170 nM in experiment [8]; 61 nM in experiment [9]; 41 nM in [10]; 1.8 nM in [11]. For the same compound, the IC50 is 27 nM in experiment [12]; 0.9 nM in [13]; 0.38 nM in experiment [14]; 110 nM in experiment [15]; 6.2 nM in [16]. Moreover, the minimal inhibitory concentration (MIC) was 16 µg/mL in experiment [3]; 8 µg/mL in experiment [4]; above 32 µg/mL in experiment [5]; 16 µg/mL in experiment [6]; 4 µg/mL in [7].
As to `O=C1N2CC(n3cc(C(F)(F)F)cn3)=CC(C2)N1OS(=O)(=O)[O-].[Na+]` (stereo not drawn) [Example 22, sodium [7-oxo-3-[4-(trifluoromethyl)pyrazol-1-yl]-1,6-diazabicyclo[3.2.1]oct-3-en-6-yl]sulfate], the IC50 in [1] turned out to be 17 nM; in experiment [2], 4.6 nM; in experiment [8], 78 nM; in experiment [9], 9.1 nM; in experiment [10], 12 nM; in experiment [11] it was 1.1 nM. Besides, the IC50 in experiment [12] worked out at 220 nM; in experiment [13] it was 0.55 nM; in experiment [14] it was 0.21 nM; in experiment [15] it was 180 nM; in experiment [16], 3 nM. In addition, the MIC in experiment [3], in experiment [4], in experiment [5], in experiment [6] and in experiment [7] was above 32 µg/mL each time.
For `O=C(Nc1nccs1)c1ccn(C2=CC3CN(C2)C(=O)N3OS(=O)(=O)[O-])n1.[Na+]` (stereo not drawn) [Example 25, sodium [7-oxo-3-[3-(thiazol-2-ylcarbamoyl)pyrazol-1-yl]-1,6-diazabicyclo[3.2.1]oct-3-en-6-yl]sulfate], the concentration for half-maximal inhibition (IC50) stood at 9.4 nM in [1]; 1.7 nM in [2]; 130 nM in [8]; 12 nM in experiment [9]; 9.2 nM in experiment [10]; 1.2 nM in experiment [11]. Besides, the IC50 in [12] was found to be 4.2 nM; in [13] it was 0.43 nM; in experiment [14], 0.29 nM; in experiment [15], 37 nM; in [16], 2.5 nM. Moreover, the MIC in experiment [3], in experiment [4], in experiment [5], in [6] and in experiment [7] was above 32 µg/mL throughout.
